Test results: BindingDB's records for doi:10.1021/acsmedchemlett.0c00340 (California Institute of Technology, 2020)

Assay: Positive allosteric modulator activity at human alpha1beta2S GABA-A receptor expressed in Xenopus laevis oocytes assessed as change in GABA EC50 at 40 uM by two electrode voltage-clamp assay

| EC50 | Compound |
| --- | --- |
| 16 µM | CN1CC[C@]2(O)c3cc(Br)ccc3N(C)[C@]12c1ccccc1 |
| 13 µM | CN1CC[C@]2(O)c3ccccc3N(C)[C@]12c1ccccc1 |
| 9 µM | CN1CC[C@]2(O)c3cc(I)ccc3N(C)[C@]12c1ccccc1 |
